Measurements published in ChEMBL document CHEMBL1125637, “Benzocycloalkyl amines as novel C-termini for HIV protease inhibitors” (J Med Chem, 1991).

Biological target: Human immunodeficiency virus type 1 protease (Human immunodeficiency virus 1, UniProt Q72874)
Test: Inhibition of HIV protease
Assay type: functional

Row | SMILES | IC50 [µM]
1 | CC(C)(C)OC(=O)N[C@@H](Cc1ccccc1)[C@@H](O)C[C@@H](Cc1ccccc1)C(=O)N[C@H]1c2ccccc2C[C@@H]1O (stereo in doubt; 10) | 0.229
2 | CC(C)(C)OC(=O)N[C@@H](Cc1ccccc1)[C@@H](O)C[C@@H](Cc1ccccc1)C(=O)NC1CCCc2ccccc21 (some centres not stated) | 0.016
3 | CC(C)(C)OC(=O)N[C@@H](Cc1ccccc1)[C@@H](O)C[C@@H](Cc1ccccc1)C(=O)N[C@@H]1CCc2ccccc21 | 0.019
4 | CC(C)(C)OC(=O)N[C@@H](Cc1ccccc1)[C@@H](O)C[C@@H](Cc1ccccc1)C(=O)N[C@H]1CCc2ccccc21 | 0.021
5 | CC(C)(C)OC(=O)N[C@@H](Cc1ccccc1)[C@@H](O)C[C@@H](Cc1ccccc1)C(=O)N[C@H]1c2ccccc2C[C@H]1O | 0.0003
6 | CC(C)(C)OC(=O)N[C@@H](Cc1ccccc1)[C@@H](O)C[C@@H](Cc1ccccc1)C(=O)NC1c2ccccc2C[C@H]1C(N)=O (some centres not stated) | 0.0018
7 | CC(C)(C)OC(=O)N[C@@H](Cc1ccccc1)[C@@H](O)C[C@@H](Cc1ccccc1)C(=O)N[C@H]1c2ccccc2[C@@H](O)[C@H]1O | 0.0001
8 | CC(C)(C)OC(=O)N[C@@H](Cc1ccccc1)[C@@H](O)C[C@@H](Cc1ccccc1)C(=O)NC1Cc2ccccc2C1 | 0.13
9 | CC(C)(C)OC(=O)N[C@@H](Cc1ccccc1)[C@@H](O)C[C@@H](Cc1ccccc1)C(=O)NC1Cc2ccccc21 (some centres not stated) | 0.022
10 | CC(C)(C)OC(=O)N[C@@H](Cc1ccccc1)[C@@H](O)C[C@@H](Cc1ccccc1)C(=O)NCCc1ccccc1 | 2.8
11 | CC(C)(C)OC(=O)N[C@@H](Cc1ccccc1)[C@@H](O)C[C@@H](Cc1ccccc1)C(=O)N[C@H]1c2ccccc2C[C@@H]1O (stereo in doubt; 8) | 0.259
12 | CC(C)(C)OC(=O)N[C@@H](Cc1ccccc1)[C@@H](O)C[C@@H](Cc1ccccc1)C(=O)NC1c2ccccc2[C@@H](N)[C@H]1O (some centres not stated) | 0.0019
